Values quoted from earlier work as cited in patent US20190209552A1, “PHARMACEUTICAL COMPOSITION OF [ (3-HYDROXY-4 -PYRON-2-YL) METHYL] -AMINE DERIVATIVES AND DNA DEMETHYLATING AGENTS AND THEIR USE AS ANTI-NEOPLASTIC DRUGS” (UNIVERSITA' DEGLI STUDI DI URBINO "CARLO BO", priority 2016, published 2019).

Key:
[1] = tested on: Ewing's sarcoma
[2] = tested on: Ewing's sarcoma; remark: listed apart in the source

SMILES: CN1CCN(Cc2occc(=O)c2O)CCN(C)CCN(Cc2occc(=O)c2O)CC1 [Maltonis, 4(N), 10(N)-bis [(3-hydroxy-4-Pyron-2-yl)methyl]-1,7-dimethyl-1,4,7,10tetraazacyclododecane]
- efficacy in vivo [1]: effective
- efficacy in vitro [2]: effective
